Assay [1] is filed under the species Cavia porcellus. Description: Compound was tested for inhibition of LTD4 induced contraction of guinea pig ileum at a concentration 5E-5 M; NS means No significant effect. It is filed as functional.
The species named for assay [2] is Cavia porcellus. Description: Compound was tested for inhibition of LTD4 induced contraction of guinea pig ileum. It is filed as functional.

Our source for the IC50 values is ChEMBL document CHEMBL1127985, “Synthesis and biological evaluation of new LTA4 analogs” (Bioorg Med Chem Lett, 1994).

pIC50: −log10 of the molar value.

Take `CCCCCCCCCC/C=C/C=C/c1cc(CCC(=O)OC)no1`: in assay [1], the IC50 entry is “Not Active”. In assay [2], `CCCCC/C=C\C\C=C/C=C/C=C/C1CC(CCC(=O)OC)=NO1` (stereo not given) had a pIC50 of 4.02.

`CCCCC/C=C\C\C=C/C=C/C=C/c1conc1CCC(=O)OC` showed a pIC50 in assay [2] of 4.22. In assay [2], `CCCCC/C=C\C\C=C/C=C/C=C/c1conc1CCCC(=O)OC` gave a pIC50 of 4.25. `CCCCC/C=C\C\C=C/C=C/C=C/c1cc(CCC(=O)OC)no1`: the IC50 entry in assay [1] is “Not Active”.

For orientation: pIC50 means the negative decadic logarithm of the IC50, by convention in mol/L. Low values mean a large IC50, high ones a small IC50.
